Assay results taken from PubChem BioAssay AID1959 (Broad Institute, 2009).
Active and inactive are the calls of the source.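 Rule for the calls: active = growth-inhibition EC50 no more than tenfold above the top tested dose; inconclusive = flat fit between 30% and 70% inhibition, or unreliable fit; inactive = EC50 more than tenfold above the top tested dose.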

System: E. coli NEB5alpha growth, BacTiter-Glo luminescence, 4 h
Experiment: Escherichia coli growth inhibition, dose response, counter-screen for MEX-5/POS-1 RNA-binding inhibitor project, luminescence, NEB5alpha (AID 1959);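 note: pUC19-transformed ampicillin-resistant cells grown in LB with ampicillin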

SMILES | EC50
O=[N+]([O-])c1cc(-c2ccc(/C=N/n3cnnc3)o2)ccc1Cl | > 11 µM (inactive)
Cc1nc(N=Nc2ccc(O)cc2)n[nH]1 | > 11 µM (inactive)
O=C1NC(=O)N(c2ccccc2F)C(=O)/C1=C/c1cn(CC(=O)N2CCOCC2)c2ccccc12 | > 11 µM (inactive)
O=C1CCCC2=C1Sc1ccc(Cl)cc1N2 | > 11 µM (inactive)
CCOC(CNC(=O)CCc1c(C)nc2nc(C)nn2c1C)OCC | > 11 µM (inactive)
COc1ccc(C2C(C#N)=C(N)OC3=C2C(=O)CC(C)(C)C3)c(OC)c1OC (centres undefined) | > 11 µM (inactive)
CCn1cc(C=C2C(=O)N(C)C(=O)N(C)C2=O)c2ccccc21 | > 11 µM (inactive)
CCn1c(SCC(=O)Nc2cc(C)on2)nnc1-c1ccc(OC)cc1 | > 11 µM (inactive)
CCCCCCCCOc1ccc(C2OC34CCCCC3C(C#N)(C#N)C2(C#N)C(=N)O4)cc1 (centres undefined) | > 11 µM (inactive)
Fc1ccc(C2=CC(c3ccco3)n3ncnc3N2)cc1 (centres undefined) | > 11 µM (inactive)
COc1ccc(NC(=O)CN2CCC(NC(=O)C3CCCCC3)CC2)c([N+](=O)[O-])c1 | > 11 µM (inactive)
O=C(NCc1cccs1)C1CCN(S(=O)(=O)c2ccc(Br)s2)CC1 | > 11 µM (inactive)
COCCCNC(CC(=O)Nc1cc(C)cc(C)c1)C(=O)O (centres undefined) | > 11 µM (inactive)
Cc1cc(/C=N/n2cnnc2)c(C)n1-c1cccc(C(=O)O)c1 | > 11 µM (inactive)
COc1ccc(/C=C/c2nc3sc4c(c3c(=O)o2)CCC4)cc1 | > 11 µM (inactive)
O=C(O)c1ccc(-n2c(-c3cc(-c4ccco4)[nH]n3)n[nH]c2=S)cc1 | > 11 µM (inactive)
CC1(OC(=O)c2ccc(Cl)nc2)C(=O)C=C2C=C(C3CC3)OC=C2C1=O (centres undefined) | > 11 µM (inactive)
CCOc1ccc(-c2nn(-c3ccccc3)cc2/C=C2\SC(=S)N(C3CCS(=O)(=O)C3)C2=O)cc1 (centres undefined) | > 11 µM (inactive)
CCn1cc(C=C2C(=O)NC(=O)NC2=O)c2ccccc21 | > 11 µM (inactive)
CCN(CC)C(=O)CSc1nnc2nnc3cc(OC)ccc3n12 | > 11 µM (inactive)
CCN(CC)Cc1cc(O)c(CN(CC)CC)cc1O | > 11 µM (inactive)
CC1=NN(C(N)=S)C(=O)C1N=Nc1ccc(S(N)(=O)=O)cc1 (centres undefined) | > 11 µM (inactive)
CC1(OC(=O)CCc2ccccc2)C(=O)C=C2C=C(c3ccsc3)OC=C2C1=O (centres undefined) | > 11 µM (inactive)
O=C1CSC(=S)N1/N=C/c1ccc(Cl)c([N+](=O)[O-])c1 | > 11 µM (inactive)

SMILES | EC50
Cc1ccc(/C=C2/C(=O)NC(=O)N(CCc3ccc(F)cc3)C2=O)o1 | > 11 µM (inactive)
CCOC(=O)c1cc(-c2ccc(/C=C3/C(=O)NC(=O)C(C#N)=C3C)o2)ccc1Cl | > 11 µM (inactive)
O=C1NC(=Nc2ccccc2Cl)S/C1=C\c1cc([N+](=O)[O-])ccc1O | > 11 µM (inactive)
COc1ccc(N2C(=O)NC(=O)/C(=C\c3cn(C)c4ccccc34)C2=O)cc1 | > 11 µM (inactive)
CC1=CC(C)(C)N2C(=O)C3(C(C#N)=C(N)OC4=C3C(=O)CC(C)(C)C4)c3cccc1c32 (centres undefined) | > 11 µM (inactive)
COc1ccc(C2C(C(=O)c3cccs3)=C(O)C(=O)N2c2nncs2)cc1 (centres undefined) | > 11 µM (inactive)
O=C1c2cccc3cccc(c23)C(=O)N1/N=C/c1c(O)n(-c2ccccc2)c(=O)[nH]c1=O | > 11 µM (inactive)
CC(C)c1cc(C(N)=O)c(NC(=O)c2cccc(COc3ccc(Br)cc3)c2)s1 | > 11 µM (inactive)
CCCCCCCCCCCCCCCCn1cc[n+](C)c1 | 9.41 µM
C=CCn1c(=O)/c(=C/c2ccc(C)o2)s/c1=C(/C#N)C(=O)c1ccccc1 | > 11 µM (inactive)
C[n+]1c(-c2ccccc2)c2cc(N)ccc2c2ccc(N)cc21 | > 11 µM (inactive)
O=C1C([N+](=O)[O-])=C(O)c2cccc3cccc1c23 | > 11 µM (inactive)
COc1cccc(C(=O)NNc2nc(C)cc(C)n2)c1 | > 11 µM (inactive)
Cc1ccc(C)n1-c1ccc2c(c1)COC2=O | > 11 µM (inactive)
CCN1CCN(Cc2c(C(=O)N/N=C(\C)c3ccc(Cl)cc3)nnn2-c2nonc2N)CC1 | > 11 µM (inactive)
O=C(NNC(=O)c1ccccc1O)c1ccc(S(=O)(=O)Nc2ccccc2F)cc1 | > 11 µM (inactive)
CCOC(=O)c1cnc(-n2nc(C)cc2C)nc1NNc1nc(C)cc(C)n1 | > 11 µM (inactive)
O=C(O)c1cccc(-n2cccc2/C=C\[N+](=O)[O-])c1 | > 11 µM (inactive)
O=C(CN1C(=O)/C(=C\C=C\c2ccccc2)SC1=S)Nc1ccc(F)cc1 | > 11 µM (inactive)
O=S(=O)(NNC(=S)Nc1ccc(S(=O)(=O)Nc2ncccn2)cc1)c1ccc(Br)cc1 | > 11 µM (inactive)
Cc1ccc2[nH]c(O)c(N=Nc3ccccc3C)c2c1 | > 11 µM (inactive)
Cc1ccc(C(=O)Oc2oc(-c3ccccc3)nc2C=Nc2ccc(N(C)C)cc2)cc1 | > 11 µM (inactive)
CN1C(=O)S/C(=C/c2cccn2-c2cccc(C(=O)O)c2)C1=O | > 11 µM (inactive)
COc1ccc(C2C(C#N)=C(N)OC3=C2C(=O)CCC3)cc1Cn1nc(C)c([N+](=O)[O-])c1C (centres undefined) | > 11 µM (inactive)

SMILES | EC50
Cc1ccc[n+](-c2[nH]c(=O)sc2/C=N/NC(=O)c2ccccc2[O-])c1 | > 11 µM (inactive)
CCOC(=O)CSc1nc2ccc(Nc3nc(N4CCOCC4)nc(N4CCOCC4)n3)cc2s1 | > 11 µM (inactive)
Cc1ccc(S(=O)(=O)Nc2ccccc2F)cc1C(=O)NNC(=O)c1csc(N2CCOCC2)n1 | > 11 µM (inactive)
Cc1onc(-c2c(F)cccc2Cl)c1C(=O)N1CCCc2ccccc21 | > 11 µM (inactive)
COc1cc(C2C(C#N)=C(N)OC3=C2C(=O)CC(C)(C)C3)c([N+](=O)[O-])cc1OC (centres undefined) | > 11 µM (inactive)
Clc1cc(-c2ccc(/C=N/n3cnnc3)o2)ccc1Br | > 11 µM (inactive)
COC(=O)c1cccc(-n2c(C)cc(C=O)c2C)c1C | > 11 µM (inactive)
O=C(CSCc1c(Cl)cccc1Cl)NCC1CCCO1 (centres undefined) | > 11 µM (inactive)
O=C(O)c1ccccc1-n1c(-c2ccccc2)cc2c1CCCC2=O | > 11 µM (inactive)
CN1C(=O)/C(=C/c2ccc3c(c2)OCO3)N=C1c1ccccc1 | > 11 µM (inactive)
Cc1ccc(S(=O)(=O)CCSc2nc(C)cc(C(F)(F)F)c2C#N)cc1 | > 11 µM (inactive)
CCN(CC)CCCNC(=O)CCC(=O)NNc1nc2ccccc2c2nc(C)nn12 | > 11 µM (inactive)
C=CCN=c1scc(-c2ccco2)n1/N=C/c1ccc(O)c(O)c1O | > 11 µM (inactive)
COc1cc(-c2cc(=O)c3c(O)c(OC)c(OC)c(O)c3o2)ccc1O | > 11 µM (inactive)
COc1ccc(-c2cn[nH]c2-c2ccc(OCC(=O)NN)cc2O)cc1OC | > 11 µM (inactive)
COc1ccc(C(=O)/C=C2\NCC3c4ccccc4CCN3C2=O)cc1 (centres undefined) | > 11 µM (inactive)
Cc1ccc(NC(=O)CN2C(=O)N/C(=C\c3cccn3-c3cccc(C(=O)O)c3)C2=O)cc1 | > 11 µM (inactive)
O=C(O)c1cccc(-n2cccc2C=C2C(=O)c3ccccc3C2=O)c1 | > 11 µM (inactive)
COc1cccc(-n2c(O)c(C=Nc3c(C)n(C)n(-c4ccccc4)c3=O)c(=O)[nH]c2=O)c1 | > 11 µM (inactive)
COc1ccc(C2C(C#N)=C(N)OC3=C2C(=O)CC(C)C3)c(OC)c1OC (centres undefined) | > 11 µM (inactive)
COc1ccc(-n2c(C)cc(/C=C3\SC(=S)N(Cc4ccco4)C3=O)c2C)cc1 | > 11 µM (inactive)
COC(=O)c1ccccc1-n1c(CCC(=O)O)ccc1-c1ccc(F)cc1 | > 11 µM (inactive)
CC1=CC(C)(C)N2C(=O)C3(C(C#N)=C(N)OC4=C3C(=O)CC(C)(C)C4)c3c(C)c(C)cc1c32 (centres undefined) | > 11 µM (inactive)
COc1cccc(OCCn2cc(C=O)c3ccccc32)c1 | > 11 µM (inactive)

SMILES | EC50
CCOC(=O)c1c(/N=C/c2c(O)n(-c3cccc(C)c3)c(=O)[nH]c2=O)sc2c1CCCC2 | > 11 µM (inactive)
Cc1ccccc1OCC(=O)Nc1ccc2c(c1)C(=O)c1ccccc1C2=O | > 11 µM (inactive)
COC/C=C/C1=CC2=CC(=O)C(C)(OC(=O)c3cccs3)C(=O)C2=CO1 (centres undefined) | > 11 µM (inactive)
COc1ccc(N=Cc2c(O)n(-c3cccc(C)n3)c(=O)c3ccccc23)c(OC)c1 | > 11 µM (inactive)
COc1ccc(OC)c(C(=O)c2coc3ccc(O)c(CN4CCOCC4)c23)c1 | > 11 µM (inactive)
Cc1n[nH]c(C)c1S(=O)(=O)N1CCCC(C(=O)Nc2ccc(Br)cc2)C1 (centres undefined) | > 11 µM (inactive)
CN(C)c1ccc(-c2nnc(-c3ccc(S(=O)(=O)C(F)F)cc3)o2)cc1 | > 11 µM (inactive)
Cc1nc(S/C(=C/c2ccc(-c3cc(Cl)ccc3C)o2)C(=O)O)n[nH]1 | > 11 µM (inactive)
CCOc1ccc(-n2c(O)c(/C=N/c3ccnn3Cc3ccncc3)c3ccccc3c2=O)cc1 | > 11 µM (inactive)
O=c1[nH]c(=S)[nH]c2[nH]c(=S)[nH]c12 | > 11 µM (inactive)
Cc1sc(-c2ccccn2)nc1OC(=O)c1cccc(Cl)c1Cl | > 11 µM (inactive)
O=C(OCC(=O)c1ccco1)c1ccc2ncsc2c1 | > 11 µM (inactive)
Oc1cccc(/C=N/N=C/c2cccc(O)c2O)c1O | > 11 µM (inactive)
C=CCOc1cccc(C2C(C(=O)c3ccco3)=C(O)C(=O)N2Cc2ccco2)c1 (centres undefined) | > 11 µM (inactive)
O=C1N=c2ccc(Br)cc2=C1c1sc(=O)[nH]c1O | > 11 µM (inactive)
COc1cc(/C=C2/C(=O)NN(c3cccc(C)c3)C2=O)cc([N+](=O)[O-])c1O | > 11 µM (inactive)
COc1ccc(/C=C2/N=C(c3cccs3)OC2=O)cc1OC(C)C | > 11 µM (inactive)
O=C1NC(=S)N(c2ccc(F)cc2)C(=O)/C1=C/c1ccco1 | > 11 µM (inactive)
O=c1ccc2[n+]([O-])c3ccc(O)cc3oc-2c1 | > 11 µM (inactive)
CCCCN(C)C(=O)CCC(=O)NNc1nc2ccccc2c2nc(C)nn12 | > 11 µM (inactive)
COc1cc(C2C(C#N)=C(N)OC3=C2C(=O)CCC3)cc2c1OCO2 (centres undefined) | > 11 µM (inactive)
Cc1nnc(N2C(=O)C(O)=C(C(=O)c3ccco3)C2c2ccc(C(C)(C)C)cc2)s1 (centres undefined) | > 11 µM (inactive)
